These results are taken from publication PMC2920453 (Chemistry & biology, 2010).

pEC50, pIC50: −log10 of the molar value.

In one data set the target is FGFR1 (Homo sapiens, UniProt P11362). The following applies: ref Kammasud et al., 2007; cited from earlier work.
For the next data set, the system named is wild-type MCF10A cells. Kind of data set: Growth of wild-type MCF10A cells. In kind it is cell-based.
Another data set concerns NCI-H1703. Description: cells. Particulars: Homo sapiens, NCI-H1703, 72 h.
The test system of another data set is LU99A. Kind of data set: cells. The following applies: Homo sapiens, LU-99A, 72 h.
In another data set the test system is A2.1. Description: cells. The following applies: Homo sapiens, 72 h.
Data set [1] deals with SBC-3. Kind of data set: cells. The following applies: Homo sapiens, SBC-3, 72 h.
Data set [2] has as its system A2780. Description: cells. Particulars: Homo sapiens, A2780, 72 h.
Data set [3] concerns iFGFR1-activated MCF10A cells. Kind of data set: 3D Matrigel culture morphogenesis. It is filed as cell-based. The following applies: 3D culture.
Data set [4] concerns SNU-16. Description: Pro-survival signaling. The following applies: 200 nM, 6 hours.
Another data set has as its system TOV-112D. Kind of data set: cells. Particulars: Homo sapiens, TOV112D, 72 h.
Data set [5] deals with SNU-16. Description: cells. Particulars: Homo sapiens, SNU-16, 72 h.
Another data set deals with FU97. Kind of data set: cells. Particulars: Homo sapiens, Fu97, 72 h.
Another data set deals with wild-type Ba/F3 cells. Kind of data set: cells. The following applies: Mus musculus, BaF3, 48 h.
The test system of the next data set is R082-W-1. Description: cells. Particulars: Homo sapiens, 72 h.
The subject of another data set is VM-CUB1. Description: cells. Particulars: Homo sapiens, VM-CUB-1, 72 h.
The subject of a further data set is G-401. Description: cells. Particulars: Homo sapiens, G-401, 72 h.
In the next data set the test system is RD-ES. Description: cells. The following applies: Homo sapiens, 72 h.
The subject of the next data set is JAR. Description: cells. The following applies: Homo sapiens, 72 h.
The test system of the next data set is WT iFGFR1 MCF10A cells. Description: iFGFR1-dependent MCF10A proliferation. Particulars: Homo sapiens, MCF-10A, 48 h.
For the next data set, the system named is PA-1. Description: cells. Particulars: Homo sapiens, PA-1, 72 h.
The test system of the next data set is JHH-7. Description: cells. The following applies: Homo sapiens, JHH7, 72 h.
The next data set deals with G-402. Kind of data set: cells. Particulars: Homo sapiens, G-402, 72 h.
Data set [6] concerns A2780. Description: Survival pathways immunoblot. Particulars: 200 nM, 6 hours. In general terms: A western blot detects proteins with antibodies after separation by electrophoresis.
For another data set, the system named is KATO-III. Description: Pro-survival signaling. Particulars: 200 nM, 6 hours.
For a further data set, the system named is H520. Description: cells. Particulars: Homo sapiens, NCI-H520, 72 h.
A further data set deals with RT4. Description: cells. The following applies: Homo sapiens, RT-4, 72 h.
For the next data set, the system named is Hec-1B cells. Kind of data set: Endometrial carcinoma cell proliferation. The following applies: wild type FGFR2; 4 days.
Another data set addresses FLT1 (Homo sapiens, UniProt P17948). Description: Z'-lyte kinase assay. It is filed as biochemical.
Data set [7] relates to SBC-3. Kind of data set: Survival pathways immunoblot. The following applies: 200 nM, 6 hours.
Another data set deals with V561M FGFR1 (Homo sapiens, UniProt P11362, V561M). The following applies: 10 μM, 1 hour drug treatment, HEK293.
Sequence of V561M FGFR1 (P11362 22-822 V561M): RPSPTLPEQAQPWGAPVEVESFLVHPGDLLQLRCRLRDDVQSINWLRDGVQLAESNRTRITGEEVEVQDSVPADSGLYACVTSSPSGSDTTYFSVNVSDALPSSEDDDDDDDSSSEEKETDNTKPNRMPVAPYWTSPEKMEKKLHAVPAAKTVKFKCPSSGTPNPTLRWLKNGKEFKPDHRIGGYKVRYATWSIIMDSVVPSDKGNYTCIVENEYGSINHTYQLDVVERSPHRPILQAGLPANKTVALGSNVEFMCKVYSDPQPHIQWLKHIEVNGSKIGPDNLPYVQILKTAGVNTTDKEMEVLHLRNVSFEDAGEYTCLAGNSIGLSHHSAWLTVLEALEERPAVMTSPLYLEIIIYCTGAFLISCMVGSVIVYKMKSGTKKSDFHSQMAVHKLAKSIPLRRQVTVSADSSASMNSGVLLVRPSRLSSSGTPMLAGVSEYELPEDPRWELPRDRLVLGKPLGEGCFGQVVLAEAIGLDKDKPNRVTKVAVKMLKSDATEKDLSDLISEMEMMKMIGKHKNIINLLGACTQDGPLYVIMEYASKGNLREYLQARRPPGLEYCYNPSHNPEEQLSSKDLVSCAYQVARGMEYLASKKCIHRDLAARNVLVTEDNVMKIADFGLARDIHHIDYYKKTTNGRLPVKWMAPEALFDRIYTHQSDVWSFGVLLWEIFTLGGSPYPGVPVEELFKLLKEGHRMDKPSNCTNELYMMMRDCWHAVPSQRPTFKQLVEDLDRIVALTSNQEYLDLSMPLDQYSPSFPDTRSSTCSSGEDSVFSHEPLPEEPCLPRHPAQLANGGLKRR
For a further data set, the system named is MFE-296 cells. Kind of data set: Endometrial carcinoma cell proliferation. The following applies: activating FGFR2 mutation; 4 days.
The test system of the next data set is AN3CA cells. Description: Endometrial carcinoma cell proliferation. Particulars: activating FGFR2 mutation; 4 days.
Another data set has as its system KATO III. Kind of data set: cells. The following applies: Homo sapiens, 72 h.
A further data set concerns STS-0421. Kind of data set: cells. The following applies: Homo sapiens, 72 h.

Sequence of FGFR1 (P11362 22-822): as the sequence (P11362 22-822 V561M) above, with M540V counted along it
Sequence of FLT1 (P17948 27-1338): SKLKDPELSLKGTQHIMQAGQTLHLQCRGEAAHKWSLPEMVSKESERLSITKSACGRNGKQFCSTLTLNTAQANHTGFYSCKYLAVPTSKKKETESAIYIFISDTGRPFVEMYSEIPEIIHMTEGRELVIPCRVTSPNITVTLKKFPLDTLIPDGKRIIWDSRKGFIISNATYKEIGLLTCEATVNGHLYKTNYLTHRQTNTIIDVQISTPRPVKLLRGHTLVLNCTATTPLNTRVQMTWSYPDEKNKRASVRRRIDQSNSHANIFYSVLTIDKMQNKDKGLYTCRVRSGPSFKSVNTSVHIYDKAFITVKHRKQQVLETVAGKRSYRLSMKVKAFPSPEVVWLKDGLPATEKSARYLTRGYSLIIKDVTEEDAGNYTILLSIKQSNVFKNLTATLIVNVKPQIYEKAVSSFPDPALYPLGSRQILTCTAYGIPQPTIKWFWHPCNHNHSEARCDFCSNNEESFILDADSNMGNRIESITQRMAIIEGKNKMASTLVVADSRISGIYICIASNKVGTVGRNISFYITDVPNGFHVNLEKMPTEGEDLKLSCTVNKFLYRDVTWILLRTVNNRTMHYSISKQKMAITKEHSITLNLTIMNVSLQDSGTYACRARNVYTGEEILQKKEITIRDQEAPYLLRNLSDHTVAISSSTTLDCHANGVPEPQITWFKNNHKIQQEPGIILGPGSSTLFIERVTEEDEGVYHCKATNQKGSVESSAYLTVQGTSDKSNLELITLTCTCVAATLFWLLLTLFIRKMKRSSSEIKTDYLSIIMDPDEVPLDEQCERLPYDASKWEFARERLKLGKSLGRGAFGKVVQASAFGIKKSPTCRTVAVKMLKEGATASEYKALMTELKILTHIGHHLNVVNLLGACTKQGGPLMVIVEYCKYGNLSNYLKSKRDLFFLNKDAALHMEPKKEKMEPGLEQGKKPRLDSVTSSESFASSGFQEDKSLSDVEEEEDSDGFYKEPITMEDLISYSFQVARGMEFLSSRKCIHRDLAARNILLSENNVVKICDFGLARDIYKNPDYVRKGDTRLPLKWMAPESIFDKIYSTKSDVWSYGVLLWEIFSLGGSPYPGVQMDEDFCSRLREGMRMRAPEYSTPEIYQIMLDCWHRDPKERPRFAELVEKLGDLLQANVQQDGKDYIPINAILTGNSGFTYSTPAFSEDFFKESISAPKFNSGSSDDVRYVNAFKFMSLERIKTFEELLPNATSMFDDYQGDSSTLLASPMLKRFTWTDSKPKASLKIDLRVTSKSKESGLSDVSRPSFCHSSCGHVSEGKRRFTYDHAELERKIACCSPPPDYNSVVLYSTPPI

On to `COc1cc(OC)cc(-c2ccc3c(c2)NC(=O)/C3=C\c2[nH]c(C)c(CCC(=O)O)c2C)c1` [NP603], for which, on FGFR1, the negative-log IC50 (pIC50) (in general, the negative decadic logarithm of the IC50, by convention in mol/L) was 6.40.
Consider `C=CC(=O)Nc1cccc(CN2C(=O)N(c3c(Cl)c(OC)cc(OC)c3Cl)Cc3cnc(NCCCCN(CC)CC)nc32)c1` [FIIN-1], for which the “effect on growth of wild-type MCF10A cells” value with wild-type MCF10A cells is “neither FIIN-1 nor PD173074 affected the growth”. In addition, the pEC50 – broadly, the EC50 on a negative log10 scale, so that one unit is a factor of ten – was < 5.30 in the data set with NCI-H1703; < 5.30 with LU99A; 6.64 with A2.1; 7.10 in the data set on SBC-3 [1]; 6.66 in the data set with A2780 [2]; < 5.30 in the data set with TOV-112D. The pEC50 with SNU-16 [5] was 7.52; in the data set on FU97, 6.19; in the data set with wild-type Ba/F3 cells it was < 5.00; with R082-W-1, < 5.30; in the data set on VM-CUB1, < 5.30; in the data set on G-401, 6.85. For the same compound, the pEC50 was 5.64 in the data set on RD-ES; < 5.30 with JAR; 8.57 in the data set with WT iFGFR1 MCF10A cells; 5.34 with PA-1; < 5.30 in the data set with JHH-7; 5.78 with G-402. The pEC50 was 5.35 in the data set on H520 and 7.15 in the data set on RT4. In data set [3] (20 nM), the “effect on abnormal morphogenesis induced by iFGFR1 activation” value is “prevented”. Besides, the “effect on pro-survival Akt and Erk1/2 pathways” value with SNU-16 [4] and in the data set on KATO-III was “potently suppressed” in each case. In addition, the “effect on cell survival and survival pathways” value in the data set with A2780 [6] and in the data set with SBC-3 [7] was “inhibited” each time. The “sensitivity in cell proliferation assay” value in the data set on Hec-1B cells is “not sensitive”. This compound also gave a pIC50 at FLT1 of 6.18.
On to `CCN(CC)CCCCNc1ncc2cc(-c3cc(OC)cc(OC)c3)c(NC(=O)NC(C)(C)C)nc2n1` [PD173074, reference compound], for which the “inhibition of autophosphorylation of FGFR1-V561M” value on V561M FGFR1 is recorded as “incapable of inhibiting”. Also, in the data set on wild-type MCF10A cells, the “effect on growth of wild-type MCF10A cells” value was “neither FIIN-1 nor PD173074 affected the growth”. Besides, the “EC50 (sensitivity in cell proliferation assay)” value in the data set on MFE-296 cells and in the data set on AN3CA cells was “sub-micromolar” each time. The pEC50 is < 5.30 with NCI-H1703; 5.52 with LU99A; 6.47 with A2.1; 6.49 with SBC-3 [1]; 6.09 in the data set with A2780 [2]; < 5.30 in the data set on TOV-112D. Besides, the negative logarithm of the EC50 (pEC50) in the data set on SNU-16 [5] is 6.92; with FU97, 5.94; with R082-W-1 it was 5.60; in the data set on VM-CUB1, < 5.30; with G-401, 6.68; in the data set on RD-ES it was < 5.30. Besides, the pEC50 with JAR is < 5.30; in the data set on PA-1, < 5.30; with JHH-7 it was < 5.30; in the data set on G-402, 5.61; with KATO III, 7.66; in the data set on H520, < 5.30. Also, the values for the negative logarithm of the EC50 (pEC50) in the data set on RT4 and in the data set with STS-0421 were 7.30 and 6.92, respectively. For the same compound, in [3] (1 μM), the “effect on abnormal morphogenesis induced by iFGFR1 activation” value was “prevented”. In addition, the “sensitivity in cell proliferation assay” value with Hec-1B cells is listed as “not sensitive”.
